Key:
mite-specific IgE = test: Serum mite-specific IgE by ELISA; format: in vivo, BALB/c mouse
Text: (§1) FIG. 4 illustrates experimental design. All groups except control group were immunized with mite crude extract allergen on days 1 and 8, then mite crude extract allergen intratracheally on day 15 in all mite treated group, BALB/c mouse were divided into six groups (1) control group (PBS), (2) mites delivered intratracheally (mIT, mite on day 15) alone, (3) CMP intranasal (eIN, CMP on days 1 to 22) alone, (4) preventive-treatment group (eIN+mIT, CMP on days 1 to 14, mite on day 15) (5) therapy-treatment group (mIT+eIN, mite on day 15, CMP on days 15 to 22), and (6) preventive- and therapeutic-treatment group (eIN+mIT+eIN, CMP on days 1 to 22, mite on day 15).
FIG. 8 illustrates inhibitory effect of CMP on serum IgE level. […] Levels of serum Derp-specific IgE were measured by enzyme-linked immunosorbent assay (ELISA). Each result was expressed as the mean±S.D., n=4. *, P<0.05, **, P<0.01. […]
Mite protein (5 μg) was coated on the plated at 4° C. overnight. […] The levels of serum mite-specific IgE were measured by enzyme-linked immunosorbent assay (ELISA).
To further analyze therapeutic effect of CMP on mite sensitization, serum mite-specific IgE levels in mice were measured from all six treatment groups. […]

[1] = system: inflammatory cell recruitment into the airways; test: Differential cell counts in bronchoalveolar lavage fluid (BALF); format: in vivo, BALB/c mouse
Text: as §1
FIG. 7 illustrates inhibitory effect of CMP on cell response in bronchoalveolar lavage fluid (BALF). BALF were collected from all experimental groups of mice. Cell populations were identified on air-dried cytocentrifuged smears after staining with Diff-Quuick stain. Differential cell counts were performed on a minimum of 300 cells to identify macrophages, eosinophils, segment or lymphocytes. Data represent one of three independent experiments. Each result was expressed as the mean±S.D., n=4. ***, P<0.001.
Mice were divided into six groups: 1) control (n=10), 2) mite crude extract allergen delivered intratracheally (mIT) alone (n=10), 3) CMP intranasal (eIN) alone (n=12), 4) preventive-treatment group (eIN+mIT; n=12), 5) therapeutic-treatment group (mIT+eIN; n=12), and 6) preventive- and therapeutic-treatment group (eIN+mIT+eIN; n=18) (FIG. 4). All groups receiving mIT were immunized with mite crude extract allergen on days 1 and 8 and then given mite crude extract allergen intratracheally on day 15. The cIN and eIN+mIT+eIN groups received cIN from days 1 to 22, the cIN+mIT group received eIN from days 1 to 15 (before mIT), and the mIT+eIN group received eIN from days 15 (post-mIT) to 22. All mice were sacrificed on day 23. The animal use protocol was reviewed and approved by Institutional Animal Care and Use Committee (IACUC Approval No: La-95279).
The trachea was exposed and cannulated. Two washings, each consisting of 1.0 ml of phosphate-buffered saline, were introduced into the lungs via the cannula and withdrawn to collect the cells. Bronchoalveolar lavage fluid (BALF) from each wash was placed in polypropylene tubes on ice. The collected BALF was then centrifuged at 300×g for 7 min at 4° C. […] Total cell numbers were counted on a hemocytometer, and 1−5×10^3 cells were spun onto glass microscope slides (cytospin, Shandon Scientific, Cheshire, UK). […] The number of cells recovered was calculated and expressed as absolute cell numbers.
To identify the extent of inflammatory cell recruitment into the airways under allergen challenge circumstance, the amount of inflammatory cell were measured in BALF. […]

human lung cancer A549 = test: Transwell migration assay, A549; format: cell-based; conditions: 5 μM CMP pretreatment 30 min, 18 hours
Protocol: FIG. 10 illustrates Tumor migration inhibition by CMP. A549, H460 and mouse colon cancer cells were incubated with CMP at 37° C. for 30 min before adding to the top chamber of transwell membranes in 24-well dishes at a density of 2×10^4 cells/well. Data represented the mean±S.E. of triplicate samples from a representative experiment. The experiment was repeated at least three times with similar results
Cancer cell inhibition by CMP was performed in a 24-well Transwell chamber consisting of a cell culture insert (6.4 mm diameter, 8-1 μm pore polyethylene tetraphtalate membrane, [Becton Dickinson]) set in each well of a 24-well companion plate (Becton Dickinson). Briefly, 3×10^4 cancer cells were suspended and pretreated with 5 and 12.5 μM CMP for 30 min in a total volume of 200 μL. Cell suspensions were inoculated into the upper chamber of an insert, 5% fetal bovine serum (FBS) in medium as a chemoattractant was added to the plate well in the bottom chamber, and incubated for 18 hours in a humidified incubator at 37° C. with 5% CO2. The non-migratory cells on the upper membrane surface were removed with a cotton swab, and the migratory cells attached to the lower membrane surface were fixed with 4% paraformaldehyde and stained with 0.2% crystal violet. The number of migrated cells was counted in four randomly selected high power fields under microscope. […]

## NYRWRCKNQN (CMP)
mite-specific IgE; eIN+mIT+eIN group, day 23
  serum mite-specific IgE level compared with mIT group: much lower
mite-specific IgE; mIT vs eIN+mIT, mIT+eIN and eIN+mIT+eIN groups, day 18
  serum mite-specific IgE reading of mIT group compared with CMP groups: higher
[1]; eIN+mIT group
  eosinophil count in BALF compared with mIT group: lower
[1]; eIN+mIT+eIN group
  eosinophil count in BALF compared with mIT group: lower
  lymphocyte count in BALF compared with mIT group: lower
  macrophage count in BALF compared with mIT group: lower
Human lung cancer A549
  decrease of migration activity: 60%

— patent publication US9315544B2, “Method of treating eosinophilia by administering an immunomodulating peptide” (National Tsing Hua University, priority 2012, dated 2016)
